Laboratory results from patent US20080176851A1, “Method for inhibiting lymphangiogenesis and inflammation” (Shiseido Company, Ltd., priority 2006, published 2008).
Entries after “also recorded” stand apart in the source; their conditions may differ.

Tests used:
LEC [1] = test: LEC proliferation assay (5-methylumbelliferylheptanoate fluorescence); format: cell-based, human
Method: (§1) Human dermal BVEC and LEC were isolated from neonatal human foreskins by immunomagnetic purification as previously described(18, 19). The lineage-specific differentiation was confirmed by real-time RT-PCR for the lymphatic vascular markers Prox1, LYVE-1 and podoplanin, and for the blood vascukar endothelial markers VEGF receptor-1 and VEGF-C, as well as by immunostains for CD31, Prox1 and podoplanin as described(18, 19). Cells were cultured in endothelial basal medium (Cambrex, Verviers, Belgium) supplemented with 20% fetal bovine serum (Gibco, Paisley, UK), antibiotics, 2 mM L-glutamine, 10 μg/ml hydrocortisone and 2.5×10^−2 mg/ml N-6,2-O-dibutyryl-adenosine 3′,5′-cyclic monophosphate (all from Fluka, Buchs, Switzerland) for up to eleven passages.
LEC (1.5×10^3) were seeded into fibronectin-coated 96-well plates as described(19). For proliferation studies, quinduplicate wells were treated or not with different concentrations (0.1 to 10 μM) of the NO donor SNAP (S-Nitroso-N-acetyl-D,L-penicillamine) (Cayman Chemical, Ann Arbor, Mich.) in EBM containing 2% fetal bovine serum. In additional assays, LEC were incubated with 10 μM of SNAP, in the presence or absence of the specific guanylate cyclase inhibitor NS-2028 (100 nM, Cayman Chemical, Ann Arbor, Mich.). After 72 hours, cells were incubated with 5-methylumbelliferylheptanoate as described. The fluorescence intensity, proportional to the number of viable cells, was measured using a Spectra Max GEMINI EM (Bucher Biotech AG, Basel, Switzerland). Haptotatic cell migration was studied as described(19), using 24-well FluoroBlok inserts of 8 μm pore size (Falcon, Franklin Lakes, N.J.). […] After 3 hours incubation at 37° C., cells on the underside of the inserts were stained with Calcein-AM (Molecular Probes), and the fluorescence intensity, proportional to the number of viable cells, was measured using a Spectra Max GEMINI EM as described(19). […] Representative images were captured and the total length of tube-like structures per area was measured using the IP-LAB software as described(19). […]

LEC [2] = test: Haptotactic LEC migration assay (FluoroBlok inserts); format: cell-based, human; details: 10 μM SNAP, 100 nM NS-2028, 3 hours
Method: as §1
(§2) LEC (1.5×10^3) were seeded into fibronectin-coated 96-well plates as described(19). […] The fluorescence intensity, proportional to the number of viable cells, was measured using a Spectra Max GEMINI EM (Bucher Biotech AG, Basel, Switzerland). […] After 3 hours incubation at 37° C., cells on the underside of the inserts were stained with Calcein-AM (Molecular Probes), and the fluorescence intensity, proportional to the number of viable cells, was measured using a Spectra Max GEMINI EM as described(19). […] Representative images were captured and the total length of tube-like structures per area was measured using the IP-LAB software as described(19). […]

HR-1 hairless mice [3] = test: UVB irradiation-induced ear swelling; format: in vivo; details: for ear swelling after UVB irradiation vs control-treated: 200 mJ/cm^2 UVB, topical daily 1 mM SNAP or 10 μM NS-2028, days 2-4
Method: (§3) A total of 15 female albino HR-1 hairless mice (Hoshino Laboratory Animal Co., Ltd, Japan) at 8 weeks of age were exposed to a single dose of 200 mJ/cm^2 of UVB irradiation, using ten Toshiba FL-20 SE fluorescent lamps that deliver energy in the UVB (280-340 nm) wave length range with a maximum energy at a wavelength of 305 nm as described(31). Beginning one day before UVB irradiation, the right ears were daily treated topically with 1 mM of SNAP, 10 μM of NS-2028, or 1 mM of SNAP together with 100 μl of 10 μM of NS-2028 in a 50% ethanol solution (n=5 per group) until day 3 after UVB irradiation (5 times total). The left ears were treated with vehicle only. The thickness of the ears was measured every day until day 4 after the UVB irradiation. At 4 days after the UVB irradiation, mouse ears were fixed in cold acetone (AMeX procedure) (30)and were processed for histological analysis of paraffin sections. All animal studies were approved by the Shiseido Life Science Research Center Committee on Research Animal Care.

HR-1 hairless mice [4] = test: Histology (hematoxylin-eosin) and MOMA-2 immunohistochemistry of UVB-irradiated ears; format: in vivo; details: for MOMA-2 positive cells / macrophage infiltration in the dermis / edema formation in the dermis vs control-treated: day 4 after UVB irradiation
Method: (§4) Immunofluorescence analysis was performed on 6-μm cryostat sections of human neonatal foreskins as described, using polyclonal antibodies against LYVE-1 (kindly provided by Dr. David Jackson, Oxford, UK), sGCα1, sGCβ1, eNOS (as described above), or a mouse monoclonal antibody against human podoplanin (20) (clone D2-40, Signet Laboratories, Dedham, Mass.), and corresponding secondary antibodies labeled with AlexaFluor488 or AlexaFluor594 (Molecular Probes, Eugene, Oreg.). Immunohistochemical analysis was performed on 5 μm AMEX-fixed sections as described(30), using antibodies against the macrophage monocyte marker MOMA-2 (BMA Biomedicals AG, Switzerland) or LYVE-1. Routine hematoxylin-eosin staining was also performed. Sections were examined by a Nikon E-600 microscope (Nikon, Melville, N.Y.) and images were captured with a SPOT digital camera (Diagnostic Instruments, Sterling Heights, Mich.). Computer-assisted morphometric analyses of representative LYVE-1-stained sections were performed as described(3).
as §3

lymphatic vessels = test: LYVE-1 immunohistochemistry and morphometric analysis of cutaneous lymphatic vessels after UVB; format: in vivo; details: UVB-irradiated mice; for enlargement of lymphatic vessels in the dermis (LYVE-1): vs vehicle
Method: as §4, §3

LEC [5] = test: LEC tube formation assay (type I collagen overlay); format: cell-based, human
Method: as §1, §2

cGMP production in LEC = test: cGMP enzyme immunoassay in siRNA-transfected LEC; format: cell-based, human
Method: siRNA transfection was performed using the Basic Nucleofactor Kit for primary mammalian endothelial cells (Amaxa Biosystems, CITY, Germany). Briefly, after trypsinization, LEC (5×10^5) were resuspended in 100 μl of basic nucleofactor solution. Cells were transfected by electroporation (Nucleofactor II, Amaxa Biosystems), using 1.6 μg of siRNA containing two different double-stranded oligonucleotides for each sGCα2 or sGCα1. The following siRNAs were used: GCα1: CCUUGUACAUAUAUCAGAUtt and GGCACCCUUAAAGAUUUUUtt, GCα2: CGAUACAGCAGACUCUCAAtt and GCUAUGCUCUGAUGUUUCAtt. Control siRNA (Silencer negative control #1 siRNA, Ambion, Cambridgeshire, UK) comprising a 19-bp scrambled sequence with 3′dT overhangs was used as a control; the sequences has no significant sequence homology to any known gene sequence. At 72 hours after tranfection, cells were used for RNA purification or for cGMP assays. Efficient knockdown of mRNA expression was confirmed by TaqMan real-time RT-PCR for sGCα1 and sGCα2 (Applied Biosystems assay ID for sGCα2 was Hs00181365_ml). For cGMP enzyme immunoassays, 1×10^4 siRNA-transfected LEC were seeded into individual wells of a 96-well plate and were incubated with 2% FBS-containing medium. After 24 hours, cells were incubated with several concentrations of SNAP (1-100 μM) for 15 minutes. The cellular cGMP concentrations were measured using an EIA immunoassay kit (Amersham Biosciences, Freiburg, Germany).

[6] = day 4 after UVB, SNAP in the presence of NS-2028

4H-8-Bromo-1,2,4-oxadiazolo(3,4-d)benz(b)(1,4)oxazin-1-one [NS-2028]
effect on SNAP-induced LEC proliferation (LEC [1]; 10 μM SNAP, NS-2028 100 nM, 72 hours): significantly blocked
effect on untreated LEC (proliferation) (LEC [1]; NS-2028 alone): did not have any effect
effect on SNAP-induced LEC migration (LEC [2]): blocked; also recorded: strongly inhibited
ear swelling after UVB irradiation vs control-treated (HR-1 hairless mice [3]): significantly reduced
SNAP-induced augmentation of the UVB response (ear swelling) (HR-1 hairless mice [3]; combined topical treatment 1 mM SNAP and 10 μM NS-2028): completely prevented
MOMA-2 positive cells / macrophage infiltration in the dermis (HR-1 hairless mice [4]): less MOMA-2 positive cells
edema formation in the dermis vs control-treated (HR-1 hairless mice [4]): decreased
SNAP-induced edema formation (HR-1 hairless mice [4]; [6]): blocked
SNAP-induced macrophage infiltration (HR-1 hairless mice [4]; [6]): blocked
SNAP-induced enlargement of lymphatic vessels (lymphatic vessels; SNAP with NS-2028): inhibited
average size of lymphatic vessels (lymphatic vessels; day 4, mean±SEM n=5): 350.1 μm^2
enlargement of lymphatic vessels in the dermis (LYVE-1) (lymphatic vessels): completely blocked

CC(=O)NC(C(=O)O)C(C)(C)SN=O (racemic) [SNAP, S-Nitroso-N-acetyl-D,L-penicillamine]
minimal effective concentration for induction of LEC proliferation (LEC [1]; SNAP 0.1 to 10 μM, 72 hours, EBM 2% fetal bovine serum): 1 µM
formation of tube-like structures vs untreated cultures (LEC [5]; 1 μM or 10 μM SNAP): potently promoted
minimal effective dose for in vitro cord formation by LEC (LEC [5]; type I collagen gel overlay, 6 hours): 1 µM
cGMP production in control siRNA- and sGCα2-siRNA transfected LEC (cGMP production in LEC; SNAP 1-100 μM, 15 minutes): dose-dependently induced
minimal effective dose for increased cGMP production (cGMP production in LEC; control siRNA-transfected and sGCα2 siRNA-transfected LEC, SNAP 15 minutes): 1 µM
induction of cGMP production in sGCα1-siRNA transfected LEC (cGMP production in LEC; sGCα1 knockdown, SNAP 1-100 μM): no induction of cGMP was detected; also recorded: completely prevented
ear swelling after UVB irradiation vs control-treated (HR-1 hairless mice [3]): significantly enhanced
MOMA-2 positive cells / macrophage infiltration in the dermis (HR-1 hairless mice [4]): strongly enhanced
edema formation in the dermis vs control-treated (HR-1 hairless mice [4]): enhanced
area occupied by lymphatic vessels (lymphatic vessels; day 4, mean±SEM n=5): 2.18%
average size of lymphatic vessels (lymphatic vessels; day 4, mean±SEM n=5): 730.7 μm^2
enlargement of lymphatic vessels in the dermis (LYVE-1) (lymphatic vessels): pronounced enlargement
